Earlier results as cited in patent US12637513B2, “Method of treating cancer by administering an inhibitor of erythropoietin receptor activity comprising either erythropoietin receptor or erythropoietin protein” (ImmunEdge, Inc., priority 2022, dated 2026).

What was measured:
PHD2 = PHD2 (Homo sapiens, UniProt Q9GZT9); details: target PHD2; cited from earlier work
[1] = system: Hypoxia-Inducible Factor (HIF); details: target cell empty; cited from earlier work
PHD1-3 = details: target PHD1-3; cited from earlier work

PHD2, sequence (Q9GZT9 whole entry): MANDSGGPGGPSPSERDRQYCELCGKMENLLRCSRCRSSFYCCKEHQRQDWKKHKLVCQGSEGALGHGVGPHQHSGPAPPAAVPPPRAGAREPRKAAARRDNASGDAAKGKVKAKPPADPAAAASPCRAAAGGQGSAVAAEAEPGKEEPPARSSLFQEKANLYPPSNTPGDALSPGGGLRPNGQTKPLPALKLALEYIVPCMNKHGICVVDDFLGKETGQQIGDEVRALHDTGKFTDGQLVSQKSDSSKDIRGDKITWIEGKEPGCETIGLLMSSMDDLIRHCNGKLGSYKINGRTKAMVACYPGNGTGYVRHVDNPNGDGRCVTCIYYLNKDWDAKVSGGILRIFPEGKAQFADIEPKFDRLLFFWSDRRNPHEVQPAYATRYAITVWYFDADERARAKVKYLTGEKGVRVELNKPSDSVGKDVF

Compound | IC50 (PHD2) [nM] | IC50 (PHD1-3) [nM] | also measured
O=C(O)CNC(=O)c1c(O)cc(CCc2ccccc2)n2ncnc12 [Enarodustat] | 220 to 5700 | – | –
CN1CCN(C(=O)COc2ccc(C34CC5CC(CC(C5)C3)C4)cc2)CC1 [IDF-11774] | – | – | IC50 [1]: 3650 nM
O=C(O)CNC(=O)c1c(O)c2ccccc2n(Cc2ccccc2)c1=O [IOX2] | 21 | – | –
COc1ccc(C(NC(=O)c2cnc(-c3cccnn3)nc2O)c2ccc(OC)cc2)cc1 [MK-8617] | – | 1 to 14 | –
O=C(O)CNC(=O)C1=C(O)CCN(Cc2ccc(Oc3ccc(Cl)cc3)nc2)C1=O [TP0463518] | – | 5.3 to 63 | –
